Measured values taken from US20260265271A1, “Cereblon Ligands and Uses Thereof” (REGENTS OF THE UNIVERSITY OF MICHIGAN, priority 2022, published 2026).

Biological target: T1, IKZF2 (Homo sapiens, UniProt Q96SW2+Q9UKS7)
T1 construct: host or cells: Jurkat-IKZF2-HiBiT
Assay: IKZF2 HiBiT degradation assay (Jurkat-IKZF2-HiBiT)
Type: cell-based
Conditions: for DC50: read-out: IKZF2 degradation DC50, Jurkat-IKZF2-HiBiT cells, 24 hours; for Dmax: read-out: IKZF2 degradation Dmax (%)
Procedure: Degradation of IKZF2 protein was determined by IKZF2 HiBiT assay using the Jurkat-IKZF2-HiBiT (Promega) cell line. […] Compounds were serially diluted in culture medium, and 20 μl of the diluted compounds were added to the appropriate wells of the plate. After the addition of compounds, the cells were incubated at 37° C. in an atmosphere of 5% CO2 for 24 hours. At the end of treatment, 40 ul of Nano-Glo HiBiT Lytic Detection Reagent (Promega) was added to each well, and then the plates were incubated at room temperature for 10-20 minutes. The luminescent signal was measured using a CALRIOstar plate reader (BMG Labtech). The readings were normalized to the DMSO-treated cells and the IC50 was calculated by nonlinear regression (four parameters sigmoid fitted with variable slope, least squares fit, and no constraint) analysis using the GraphPad Prism 8 software.

T1 sequence (Q9UKS7 whole entry): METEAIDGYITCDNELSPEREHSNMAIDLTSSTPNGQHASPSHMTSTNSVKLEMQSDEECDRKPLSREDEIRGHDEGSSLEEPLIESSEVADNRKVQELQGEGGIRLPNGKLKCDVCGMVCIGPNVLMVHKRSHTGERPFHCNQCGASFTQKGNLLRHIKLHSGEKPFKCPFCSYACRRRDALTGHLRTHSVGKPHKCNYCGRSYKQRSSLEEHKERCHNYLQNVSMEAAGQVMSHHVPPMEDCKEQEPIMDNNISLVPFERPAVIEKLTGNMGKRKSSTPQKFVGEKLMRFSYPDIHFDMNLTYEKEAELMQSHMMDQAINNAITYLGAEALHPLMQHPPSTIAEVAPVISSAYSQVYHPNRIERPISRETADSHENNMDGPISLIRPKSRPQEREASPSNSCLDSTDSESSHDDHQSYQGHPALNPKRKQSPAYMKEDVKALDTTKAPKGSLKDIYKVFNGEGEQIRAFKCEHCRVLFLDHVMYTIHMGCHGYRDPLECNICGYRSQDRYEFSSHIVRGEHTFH
T1 sequence (Q96SW2 whole entry): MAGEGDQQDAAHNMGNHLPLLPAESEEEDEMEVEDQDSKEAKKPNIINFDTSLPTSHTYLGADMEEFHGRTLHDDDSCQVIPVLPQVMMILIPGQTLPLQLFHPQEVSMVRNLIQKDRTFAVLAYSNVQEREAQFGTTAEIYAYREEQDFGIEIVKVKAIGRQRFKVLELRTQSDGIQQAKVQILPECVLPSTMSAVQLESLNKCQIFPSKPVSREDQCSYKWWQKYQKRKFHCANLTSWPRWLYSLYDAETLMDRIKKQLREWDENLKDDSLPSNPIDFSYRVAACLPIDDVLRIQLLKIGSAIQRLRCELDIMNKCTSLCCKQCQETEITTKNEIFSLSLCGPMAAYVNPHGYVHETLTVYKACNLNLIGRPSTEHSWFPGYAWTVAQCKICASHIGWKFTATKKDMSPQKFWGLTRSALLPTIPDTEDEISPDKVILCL
T1 sequence (Q16531 2-1140 partner limits assumed): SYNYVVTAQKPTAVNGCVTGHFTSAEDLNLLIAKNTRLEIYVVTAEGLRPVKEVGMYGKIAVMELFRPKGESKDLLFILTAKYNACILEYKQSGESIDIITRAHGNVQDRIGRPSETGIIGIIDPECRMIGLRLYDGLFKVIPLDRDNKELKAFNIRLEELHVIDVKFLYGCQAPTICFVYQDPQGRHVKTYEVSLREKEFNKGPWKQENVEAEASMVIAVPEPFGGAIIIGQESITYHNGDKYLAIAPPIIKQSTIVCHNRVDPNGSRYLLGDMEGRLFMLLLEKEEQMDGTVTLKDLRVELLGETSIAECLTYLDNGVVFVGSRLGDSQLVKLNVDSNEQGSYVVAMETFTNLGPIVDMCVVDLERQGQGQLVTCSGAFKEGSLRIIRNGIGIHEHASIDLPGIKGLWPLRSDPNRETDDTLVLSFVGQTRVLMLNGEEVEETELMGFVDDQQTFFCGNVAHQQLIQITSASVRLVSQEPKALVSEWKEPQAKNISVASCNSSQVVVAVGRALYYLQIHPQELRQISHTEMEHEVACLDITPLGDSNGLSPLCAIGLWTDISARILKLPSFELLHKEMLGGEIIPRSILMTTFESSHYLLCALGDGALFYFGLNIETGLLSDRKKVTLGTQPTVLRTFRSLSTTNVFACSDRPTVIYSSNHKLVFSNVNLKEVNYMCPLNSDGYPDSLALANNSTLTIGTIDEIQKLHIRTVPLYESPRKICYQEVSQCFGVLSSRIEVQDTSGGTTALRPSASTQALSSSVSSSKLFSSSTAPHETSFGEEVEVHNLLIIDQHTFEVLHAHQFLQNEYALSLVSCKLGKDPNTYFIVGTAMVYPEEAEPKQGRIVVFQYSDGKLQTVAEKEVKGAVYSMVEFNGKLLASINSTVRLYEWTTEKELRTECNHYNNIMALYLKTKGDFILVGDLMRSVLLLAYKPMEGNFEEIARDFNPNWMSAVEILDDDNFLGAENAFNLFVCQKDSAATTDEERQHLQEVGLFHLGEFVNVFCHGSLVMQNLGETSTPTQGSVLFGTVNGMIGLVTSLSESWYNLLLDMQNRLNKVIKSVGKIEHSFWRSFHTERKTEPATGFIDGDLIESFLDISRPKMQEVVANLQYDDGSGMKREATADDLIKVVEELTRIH

Row | SMILES | DC50 [nM] | Dmax [%]
1 | O=C1CCC(N2Cc3cc4c(cc3C2=O)OC[C@@H]2CN(Cc3ccccc3)CCN42)C(=O)N1 (stereo partly drawn) [Compound C1, 3-((S)-3-benzyl-8-oxo-1,2,3,4,4a,5,8,10-octahydro-9H-pyrazino[1′,2′:4,5][1,4]oxazino[2,3-f]isoindol-9-yl)piperidine-2,6-dione] | > 2000 | 27
2 | O=C1CCC(N2Cc3cc4c(cc3C2=O)OC[C@@H]2CN(CC3CCCCC3)CCN42)C(=O)N1 (stereo partly drawn) [Compound C2, 3-((S)-3-(cyclohexylmethyl)-8-oxo-1,2,3,4,4a,5,8,10-octahydro-9H-pyrazino[1′,2′:4,5][1,4]oxazino[2,3-f]isoindol-9-yl)piperidine-2,6-dione] | 1400 | 56
3 | CCCN1CCN2c3cc4c(cc3OC[C@@H]2C1)C(=O)N(C1CCC(=O)NC1=O)C4 (stereo partly drawn) [Compound C3, 3-((S)-8-oxo-3-385.21propyl-1,2,3,4,4a,5,8,10-octahydro-9H-pyrazino[1′,2′:4,5][1,4]oxazino[2,3-f]isoindol-9-yl)piperidine-2,6-dione] | > 2000 | 58
4 | O=C1CCC(N2Cc3cc4c(cc3C2=O)OC[C@@H]2CN(CC3CCCC3)CCN42)C(=O)N1 (stereo partly drawn) [Compound C4, 3-((S)-3-(cyclopentylmethyl)-8-oxo-1,2,3,4,4a,5,8,10-octahydro-9H-pyrazino[1′,2′:4,5][1,4]oxazino[2,3-f]isoindol-9-yl)piperidine-2,6-dione] | 430 | 61
5 | CC(=O)N1CCC(CCN2CCN3c4cc5c(cc4OC[C@@H]3C2)C(=O)N(C2CCC(=O)NC2=O)C5)CC1 (stereo partly drawn) [Compound C5, 3-((S)-3-(2-(1-acetylpiperidin-4-yl)ethyl)-8-oxo-1,2,3,4,4a,5,8,10-octahydro-9H-pyrazino[1′,2′:4,5][1,4]oxazino[2,3-f]isoindol-9-yl)piperidine-2,6-dione] | > 2000 | 38
6 | CC(=O)N1CC2(CCC(CN3CCN4c5cc6c(cc5OC[C@@H]4C3)C(=O)N(C3CCC(=O)NC3=O)C6)CC2)C1 (stereo partly drawn) [Compound C6, 3-((S)-3-((2-acetyl-2-azaspiro[3.5]nonan-7-yl)methyl)-8-oxo-1,2,3,4,4a,5,8,10-octahydro-9H-pyrazino[1′,2′:4,5][1,4]oxazino[2,3-f]isoindol-9-yl)piperidine-2,6-dione] | 330 | 62
7 | O=C1CCC(N2Cc3cc4c(cc3C2=O)OC[C@@H]2CN(CC3CCN(c5ccccc5)CC3)CCN42)C(=O)N1 (stereo partly drawn) [Compound C7, 3-((S)-8-oxo-3-((1-phenylpiperidin-4-yl)methyl)-1,2,3,4,4a,5,8,10-octahydro-9H-pyrazino[1′,2′:4,5][1,4]oxazino[2,3-f]isoindol-9-yl)piperidine-2,6-dione] | 320 | 50
8 | Cn1cc(-c2cccc(CN3CCN4c5cc6c(cc5OC[C@@H]4C3)C(=O)N([C@H]3CCC(=O)NC3=O)C6)c2)cn1 [Compound C20, (S)-3-((S)-3-(3-(1-methyl-1H-pyrazol-4-yl)benzyl)-8-oxo-1,2,3,4,4a,5,8,10-octahydro-9H-pyrazino[1′,2′:4,5][1,4]oxazino[2,3-f]isoindol-9-yl)piperidine-2,6-dione] | > 10000 | 27
9 | COc1ccc(C(=O)Nc2cccc(CN3CCN4c5cc6c(cc5OC[C@@H]4C3)C(=O)N([C@H]3CCC(=O)NC3=O)C6)c2)cc1 [Compound C21, N-(3-(((S)-9-((S)-2,6-dioxopiperidin-3-yl)-8-oxo-1,2,4a,5,9,10-hexahydro-8H-pyrazino[1′,2′:4,5][1,4]oxazino[2,3-f]isoindol-3(4H)-yl)methyl)phenyl)-4-methoxybenzamide] | 9 | 85
10 | COc1ccc(C(=O)Nc2cccc(CN3CCN4c5cc6c(cc5OC[C@H]4C3)C(=O)N(C3CCC(=O)NC3=O)C6)c2)cc1 (stereo partly drawn) [Compound C22, N-(3-(((4aR)-9-(2,6-dioxopiperidin-3-yl)-8-oxo-1,2,4a,5,9,10-hexahydro-8H-pyrazino[1′,2′:4,5][1,4]oxazino[2,3-f]isoindol-3(4H)-yl)methyl)phenyl)-4-methoxybenzamide] | > 1000 | 44
